Results from patent US20210071180A1, “MICRORNA 584-5P COMPOSITIONS AND METHODS FOR TREATING CANCER” (BOARD OF REGENTS, THE UNIVERSY OF TEXAS SYSTEM, priority 2018, published 2021).

Tests used:
Format in all cases: cell-based
MB stem cells = test: Medullosphere (tumor sphere) formation in serum-free stem cell media; conditions: D556Med cells
Experimental: Several research groups have posited the presence of tumor-initiating cells in MBs (Manoranjan, B. et al. Pediatr Res 71, 516-522, (2012)). Moreover, the tumor-initiating cells in general have not responded to radiation and chemotherapy drugs (Manoranj an, B. et al. Pediatr Res 71, 516-522, (2012)). Therefore, it was tested whether miR-584 may inhibit MB tumor-initiating cell proliferation. Consistent with the characteristics of tumor-initiating cells, MB cells cultured in serum-free stem cell media formed tumor spheres that were serially passaged for many cycles (FIG. 14A). Bar graphs show number and size of medullospheres obtained from D556Med cells transfected with miR-NC or miR-584-5p mimic. The p-value was calculated using a standard Student t-test. Error bars represent mean±SEM. […] The p-value was calculated using one-way ANOVA followed by Sidak's multiple-comparisons test. Error bars represent mean±SEM. These findings are highly significant because, this study is one of the first to propose a role for miR-584-5p and its target genes in regulating MB stem cell proliferation.

MB cells = test: Annexin V-FITC FACS analysis of apoptosis; conditions: Annexin V staining
Experimental: To gain more insight into the tumor-suppressing and VCR-sensitizing activities of miR-584-5p, it was determined how the miR-584-5p mimic affected cell cycle progression of MB cells. […] Bar graphs show DNA histograms quantified using the FlowJo software. In FIG. 9A, the p-values were determined by two-way ANOVA followed by Tukey's multiple-comparisons test. Error bars represent mean±SEM. […] In FIG. 9B, the p-values were calculated using standard Student t-tests. Error bars represent mean±SEM. […] Next, it was determined whether miR-584-5p's effect on cell cycle progression may be mediated via its target genes eIF4E3/HDAC1. […] Bar graphs show dot plots quantified using the FlowJo software. Next, it was tested whether miR-584-5p-induced cell cycle arrest led to apoptosis of MB cells. […] In FIG. 8C, the bar graphs reflect DNA histograms quantified using the FlowJo software and in FIG. 8D and FIG. 9C, the bar graphs show dot plots quantified using the FlowJo software. The p-values for panels 8A-D and FIG. 9C were determined by two-way ANOVA followed by Tukey's multiple-comparisons test. Error bars represent mean±SEM. ****, p<0.0001; ***, p<0.001; **, p<0.01; *, p<0.05.
Flow cytometry analysis of cell cycle and apoptosis. […] Cells were analyzed using either FACScantoII or LSRII cytometers, and data were quantified using FlowJo 10.2 software.

eIF4E1 = test: Western blot analysis of eIF4E1; conditions: MB cells
Experimental: Next, it was determined whether miR-584-5p and its target genes, eIF4E3 and HDAC1, show reciprocal expression pattern in MB. […] In FIG. 16A, data represent Log 2 ratio tumor/cerebellum control. Data mined from GSE42657. In FIG. 16B, data represent Log 2 ratio tumor/cerebellum control. Data mined from GSE28245. To further confirm those results, miR-584-5p expression in MB patient-derived xenografts was examined. […] The p-values were calculated using one-way ANOVA followed by Sidak's multiple-comparisons test. Error bars represent mean±SEM. To further confirm the specificity of miR-584-5p-eIF4E3 signaling axis in MB, the expression of eIF4E1, which acts as an oncogene in several cancers (Bhat, M. et al. Nat Rev Drug Discov 14, 261-278, (2015)), was tested in miR-584-5p treated cells.

D458Med cells = test: miRNA mimic library screen, CellTiter-Glo cell viability; conditions: screen of 1,902 miRNA mimics, VCR at IC20
Experimental: To identify miRNAs that may sensitize VCR response in MB, a high-throughput screening platform was combined with a library of 1,902 chemically synthesized human miRNA mimics. The miRNAs are arrayed in a one-miRNA-one-well format in 96-well microtiter plates. Reverse transfection of Group 3/c-Myc-amplified D458Med cells was performed in triplicate in the presence and absence of a sublethal dose of VCR, which was optimized in four MB cell lines before the screen (FIG. 2A). Cells were subjected to VCR at an IC20 lethal concentration for 72 hours after 48 hours of transfection, and cell viability was measured (FIG. 1A). Candidate miRNAs were prioritized for validation by functional and interaction assays using standard Student t-tests (with pooled variance), false discovery rate (Q=0.5%), and by using the magnitude of response (lowest 2.5 percentile of the distribution of the μVCR/μControl ratios).
miRNA mimic library screen. The primary screen was conducted using MI00200 MISSION microRNA Mimic v.17, in which miRNA mimics were arrayed in a one-miRNA-one-well format in 96-well microtiter plates. […] Cell viability was assessed using CellTiter-Glo (Promega, Madison, Wis., USA) according to the manufacturer's protocol. ath-miR-416 or cel-miR-243 was added as a negative control, whereas siRNA against PLK-1 was used as a positive control in each plate. […]

miR-584-5p: microRNA mimic; nucleotide sequence UUAUGGUUUGCCUGGGACUGAG (SEQ ID NO: 1); purchased from Thermofisher (chemistry not given here)
number and size of medullospheres / MB stem cell proliferation (MB stem cells): significantly smaller and fewer spheres | apoptosis of MB cells (MB cells): increased apoptosis | eIF4E1 levels (eIF4E1): did not show any change | difference in cell viability in VCR-treated MB cells in comparison with untreated cells (D458Med cells): highest magnitude of difference in cell viability
